From patent US20100028849A1, “NOVEL PROCESS FOR DEVITALIZED/ACELLULAR TISSUE FOR TRANSPLANTATION” (priority 2006, published 2010)

Tests used:
[1] = system: human skin (epidermis and dermis intact) tissue cells; assay: alamarBlue viability assay of human skin exposed to ozone; format: cell-based; details: 60 minutes of ozone exposure in sterile normal saline with agitation; 5-20 ppm, 4 C to 25 C
Excerpt: This example measured the effect of ozone on human skin. Human skin (epidermis and dermis intact) was exposed to ozone for various lengths of time. Ozone was pumped through an aqueous solution (sterile normal saline) obtaining levels between 5 and 20 ppm at temperatures between 4 C and 25 C. An alamarBlue™ viability assay, which is supplied by Invitrogen Corporation of Carlsbad, Calif., was used to quantify viability of the tissue cells. The alamarBlue™ dye is reduced by metabolic intermediates within a cell; reduction of the dye is then measured spectrophotometrically.
To perform the alamarBlue™ assay, human skin was sectioned into 6 mm diameter discs and placed individually into wells of a 24-well tissue culture plate. To each sample, 10% alamarBlue™ reagent in RPMI-1640 was added. The plate was incubated at 37° C. on an orbital shaker for 4 hours. Each well was then sampled in triplicate to a 96-well assay plate. The absorbance of the plate was measured at 600 nm and 570 nm, where the […]. The absorbencies were then used to calculate the percent reduction of alamarBlue™ dye, as follows: […]

[2] = system: S. epidermidis; assay: antimicrobial ability of ozone in aqueous solution, plating on agar (CFU); format: cell-based; details: 5-10 ppm ozone in sterile water; for Final (CFU/mL): initial inoculum 2.1 × 10^8 CFU/mL
Method: S. epidermidis was subjected to 5-10 ppm ozone in sterile water, followed by plating the organisms onto agar plates and placing the plates in a 37° C. incubator.

O=[O+][O-] [Ozone, ozone]
viability of the tissue cells (percent reduction of alamarBlue dye) [1]: death of the cells within the skin | Log Reduction ([2]; 2.5 min exposed to ozone): 8 log | Final (CFU/mL) ([2]; 2.5 min exposed to ozone): 0 CFU/mL | Log Reduction ([2]; 5 min exposed to ozone): 8 log | Final (CFU/mL) ([2]; 5 min exposed to ozone): 0 CFU/mL | Log Reduction ([2]; 7.5 min exposed to ozone): 8 log | Final (CFU/mL) ([2]; 7.5 min exposed to ozone): 0 CFU/mL | Log Reduction ([2]; 10 min exposed to ozone): 8 log | Final (CFU/mL) ([2]; 10 min exposed to ozone): 0 CFU/mL | Log Reduction ([2]; 20 min exposed to ozone): 8 log | Final (CFU/mL) ([2]; 20 min exposed to ozone): 0 CFU/mL | log reduction in colony forming units (CFU) ([2]; at 2.5 minutes or longer, total kill of microbes): 8 log
